In PMC13626384 (Journal of medicinal chemistry, 2025):
“Also recorded” adds a separate entry of the source. Read-outs that look alike come from different tables or passages of the source.

What was measured:
Caco-2 cells = assay: Caco-2 cell permeability and efflux; assay type: in vitro ADME, human; settings: for Efflux Ratio: Caco-2; for % Recovery (A-B): Caco-2, A-B direction; for % Recovery (B-A): Caco-2, B-A direction; for Pe (A-B): Caco-2, apical to basolateral; for Pe (B-A): Caco-2, basolateral to apical
SF188 cell line = assay: Cytotoxicity against SF188 cells; assay type: cell-based, human
D283-med cell line = assay: Cytotoxicity against D283-med cells; assay type: cell-based, human; settings: read-out: D283-med IC50
[1] = PAMPA-BBB permeability assay; settings: PAMPA-BBB
[2] = test system: human foreskin fibroblasts (HFF-1) cell line; assay: Cytotoxicity against HFF-1 cells; assay type: cell-based; settings: read-out: HFF-1 IC50; non-cancerous fibroblasts
[3] = molecular target: human immunoproteasome (i20S) β1 (Homo sapiens, UniProt P28065+P40306); assay: Proteasome subunit inhibition, i20S β1; assay type: biochemical
[4] = Liver microsomal stability; settings: mouse liver microsomes
[5] = molecular target: human immunoproteasome (i20S) β5 (Homo sapiens, UniProt P20618+P28062); assay: Proteasome subunit inhibition, i20S β5; assay type: biochemical; settings: read-out: i20S β5 IC50 ± SD; read 60 to 90 minutes after start
Plasma stability = assay type: in vitro ADME; settings: for Plasma Stability % remaining: mouse plasma; for remaining at 2 h / remaining at 5 h: mouse, plasma, Plasma Stability % remaining
H460 cell line = assay: Cytotoxicity against H460 cells; assay type: cell-based
[6] = molecular target: human immunoproteasome (i20S) β2 (Homo sapiens, UniProt P40306+P49720); assay: Proteasome subunit inhibition, i20S β2; assay type: biochemical
[7] = In vivo pharmacokinetics, plasma and brain; design: species or system Male C57BL/6 mice; settings: mice
mice = assay: Toxicity observation in the PK study; assay type: in vivo; settings: 1 mg/kg i.v., 1 mg/kg
in vitro = settings: mouse liver microsomes
[8] = molecular target: human constitutive proteasome (c20S) β1 (Homo sapiens, UniProt P28072+Q99436); assay: Proteasome subunit inhibition, c20S β1; assay type: biochemical
[9] = Caco-2 cell permeability and efflux; assay type: in vitro ADME, human; settings: human
[10] = read-out: SF188 IC50, glioblastoma cell line
[11] = read-out: i20S β1 IC50 ± SD, read 60 to 90 minutes after start
[12] = read-out: H460 IC50, non-small cell lung cancer cell line
[13] = read-out: i20S β2 IC50 ± SD, read 60 to 90 minutes after start
[14] = 10 mg/kg i.v., with and without tariquidar
[15] = 10 mg/kg i.v., compound by itself, 30 minutes
[16] = 10 mg/kg i.v., pretreated with tariquidar, 0.5 h
[17] = Homo sapiens, SF-188, read-out: SF188 IC50, glioblastoma cell line

Compound | Efflux Ratio (Caco-2 cells) | % Recovery (A-B) (Caco-2 cells) | % Recovery (B-A) (Caco-2 cells) | Pe (A-B) (Caco-2 cells) | Pe (B-A) (Caco-2 cells) | IC50 (SF188 cell line; [10]) | IC50 (D283-med cell line; medulloblastoma cell line) | % Recovery [1] | Mean Permeability [1] | IC50 [3, 11] | Microsomal Stability Clearance Category [4] | Microsomal Stability mCLint [4] | IC50 [5] | Plasma Stability % remaining (Plasma stability; after 2 hr) | IC50 (H460 cell line; [12]) | IC50 [6, 13] | half-life (in vitro) | remaining at 2 h (Plasma stability; after 2 hr) | other results
CC(C)C[C@H](NC(=O)[C@@H]1Cc2c(F)c(F)c(c(F)c2F)Sc2cccc(c2)CC(=O)NC(C)(C)C(=O)N1)C(=O)[C@@]1(C)CO1 [Compound 31, (S)-3^2,3^3,3^5,3^6-Tetrafluoro-8,8-dimethyl-N-((S)-4-methyl-1-((R)-2-methyloxiran-2-yl)-1-oxopentan-2-yl)-7,10-dioxo-2-thia-6,9-diaza-1(1,3),3(1,4)-dibenzenacycloundecaphane-5-carboxamide] | 17.6 | 94% | 73% | 3.6 10^−6 cm/sec | 63.0 10^−6 cm/sec | 24 ± 9 nM | 57 ± 14 nM | 64% | 3.70 10^−6 cm/sec | 207 ± 14.3 nM | High | 182 µL/min/mg | 763 ± 199 nM | 81 after 2 hr % | 175 ± 16 nM | 1060 ± 121 nM | – | – | IC50 [2]: 122 ± 14 nM; Microsomal Stability t1/2 [4]: 8 min
CC(C)C[C@H](NC(=O)[C@@H]1Cc2c(F)c(F)c(c(F)c2F)S(=O)(=O)c2cccc(c2)CC(=O)N[C@@H](C(C)C)C(=O)N1)C(=O)[C@@]1(C)CO1 [Compound 11, (5S,8S)-3^2,3^3,3^5,3^6-Tetrafluoro-8-isopropyl-N-((S)-4-methyl-1-((R)-2-methyloxiran-2-yl)-1-oxopentan-2-yl)-7,10-dioxo-2-thia-6,9-diaza-1(1,3),3(1,4)-dibenzenacycloundecaphane-5-carboxamide 2,2-dioxide] | – | 91% | 97% | 7.2 10^−6 cm/sec | 45.4 10^−6 cm/sec | 9.8 ± 1.2 nM | 6 ± 2 nM | 64% | 2.15 10^−6 cm/sec | 379 ± 47.7 nM | Medium | 43 µL/min/mg | 830 ± 260 nM | 88% | 79 ± 20 nM | 829 ± 187 nM | – | – | IC50 [2]: 85 ± 7 nM; Microsomal Stability t1/2 [4]: 32 min; Plasma half-life [7, 14]: 1.2 to 1.4 h; Brain tissue concentration ([7]; 10 mg/kg i.v., with and without tariquidar, 30 minutes and 2 hours): no quantifiable concentrations were detected
CC(C)C[C@H](NC(=O)[C@@H]1Cc2c(F)c(F)c(c(F)c2F)Sc2cccc(c2)CC(=O)N[C@@H](C(C)C)C(=O)N1)C(=O)[C@@]1(C)CO1 [Compound 10, (5S,8S)-3^2,3^3,3^5,3^6-Tetrafluoro-8-isopropyl-N-((S)-4-methyl-1-((R)-2-methyloxiran-2-yl)-1-oxopentan-2-yl)-7,10-dioxo-2-thia-6,9-diaza-1(1,3),3(1,4)-dibenzenacycloundecaphane-5-carboxamide] | 1.4 | 83% | 75% | 25.1 10^−6 cm/sec | 34.4 10^−6 cm/sec | 123 ± 8 nM | 17 ± 7 nM | 49% | 3.48 10^−6 cm/sec | 163 ± 14.9 nM | High | 202 µL/min/mg | 532 ± 56.9 nM | 98 after 2 hr % | 2590 nM | 464 ± 50.1 nM | – | – | Pe (effective permeability) [1]: around 4 10^−6 cm s^−1; Signs of toxicity (mice): no signs of toxicity were observed; also recorded: lack of toxicity; Mean B/P ratio ([7]; 1 mg/kg i.v., 1.0 h): 0.78; Mean Brain Con ([7]; 1 mg/kg i.v., 1.0 h): 12.0 ng/g; Mean Plasma Conc. ([7]; 1 mg/kg i.v., 1.0 h): 16.8 ng/mL; Mean Plasma Conc. ([7]; 1 mg/kg i.v., 4.0 h): 5.4 ng/mL; Mean Brain Con ([7]; 1 mg/kg i.v., 4.0 h, LLOQ 2.00 ng/mL, 1 mg/kg): below the limit of quantification and BLQ; Plasma Cmax ([7]; 1 mg/kg i.v., earliest time point): 423 ng/mL; Plasma Stability % remaining (Plasma stability; after 5 hr): more than 75%
C[C@@]12OC(=O)[C@]1([C@@H](O)[C@@H]1C=CCCC1)NC(=O)[C@@H]2CCCl [Marizomib, reference compound] | – | – | – | – | – | – | – | – | – | – | High | – | – | – | – | – | < 5 min | 20% | IC50 (SF188 cell line; Homo sapiens, SF-188, read-out: SF188 IC50): 22 ± 4 nM; IC50 (D283-med cell line; Homo sapiens, D283 Med): 70 ± 3 nM; recovery ([1]; PAMPA, % Recovery): 2%; Papp ([1]; PAMPA, Mean Permeability): 0.13 ×10⁻⁶ cm/s; IC50 [3]: 40.5 ± 1.7 nM; IC50 (H460 cell line; Homo sapiens, NCI-H460, read-out: H460 IC50): 73 ± 6 nM; IC50 [6]: 207 ± 22.3 nM; IC50 [8]: 336 ± 27.2 nM
S)-N-((S)-4-Methyl-1-((R)-2-methyloxiran-2-yl)-1-oxopentan-2-yl)-8,11-dioxo-2-oxa-9,12-diaza-1(1,4)-benzenacyclotetradecaphane-13-carboxamide [Compound 35] | 2.5 | 98% | 93% | 18.6 10^−6 cm/sec | 46.5 10^−6 cm/sec | 806 ± 388 nM | 332 ± 12 nM | 100% | 6.81 10^−6 cm/sec | 78.2 ± 5.3 nM | Low | 10 µL/min/mg | 1900 ± 587 nM | 64 after 2 hr % | 853 ± 90 nM | 1750 ± 240 nM | – | – | Pe (effective permeability) [1]: 6.8 10^−6 cm s^−1; Mean B/P ratio ([7]; 10 mg/kg i.v., alone, 1.0 h): 0.08; Mean Brain Con ([7]; 10 mg/kg i.v., alone, 1.0 h): 26.3 ng/g; Mean Plasma Conc. ([7]; 10 mg/kg i.v., alone, 1.0 h): 330 ng/mL; Mean Plasma Conc. ([7]; 10 mg/kg i.v., alone, 2.0 h): 5.3 ng/mL; Mean Brain Con ([7]; 10 mg/kg i.v., alone, 2.0 h, LLOQ 2.00 ng/mL, 10 mg/kg): below the quantification limit and BLQ; Brain concentration [7, 15]: 26 ng/mL; Brain-to-plasma ratio [7, 15]: 0.08; Mean Brain Con ([7]; 10 mg/kg i.v., pretreated with tariquidar (13 mg/kg, i.p.), 0.5 h): 137.0 ng/g; Mean B/P ratio [7, 16]: 0.80; Mean Plasma Conc. [7, 16]: 165.7 ng/mL; Mean Plasma Conc. ([7]; 10 mg/kg i.v., pretreated with tariquidar, 2.0 h): 5.0 ng/mL; Mean Brain Con ([7]; 10 mg/kg i.v., pretreated with tariquidar, 2.0 h, LLOQ 2.00 ng/mL): below the quantification limit and BLQ; Brain concentration ([7]; 10 mg/kg i.v., tariquidar group, 30 minutes): 137 ng/mL; Plasma Cmax (average) [7, 14]: 2453 ng/mL; Plasma half-life [7, 14]: ~ 0.25 hours; Plasma Stability % remaining (Plasma stability; after 5 hr): more than 75%
CC(C)C[C@H](NC(=O)C(CSc1c(F)c(F)c(F)c(F)c1F)NC(=O)[C@@H](NC(=O)CCc1ccccc1)C(C)C)C(=O)[C@@]1(C)CO1 (stereo in doubt) [Compound 2, (S)-3-Methyl-N-((S)-1-(((S)-4-methyl-1-((R)-2-methyloxiran-2-yl)-1-oxopentan-2-yl)amino)-1-oxo-3-((perfluorophenyl)thio)propan-2-yl)-2-(3-phenylpropanamido)butanamide] | – | – | – | – | – | 132 ± 22 nM | – | – | – | – | High | – | – | – | 632 ± 167 nM | – | < 5 min | > 99% | IC50 (SF188 cell line; [17]): < 200 nM; remaining at 5 h (Plasma stability; after 5 hr): > 75%
CC(C)C[C@H](NC(=O)C(CSc1c(F)c(F)c(F)c(F)c1F)NC(=O)[C@@H](NC(=O)c1cc(Cl)ccc1Cl)C(C)C)C(=O)[C@@]1(C)CO1 (stereo in doubt) [Compound 4, 2,5-Dichloro-N-((S)-3-methyl-1-(((S)-1-(((S)-4-methyl-1-((R)-2-methyloxiran-2-yl)-1-oxopentan-2-yl)amino)-1-oxo-3-((perfluorophenyl)thio)propan-2-yl)amino)-1-oxobutan-2-yl)benzamide] | – | – | – | – | – | 192 ± 70 nM | – | – | – | – | High | – | – | – | – | – | < 5 min | > 99% | Papp B→A ([9]; Caco-2): 1.3 ×10⁻⁶ cm/s; recovery ([9]; Caco-2, % Recovery (A-B), Caco-2, A-B direction): 27%; recovery ([9]; Caco-2, % Recovery (B-A), Caco-2, B-A direction): 42%; IC50 (SF188 cell line; [17]): < 200 nM; remaining at 5 h (Plasma stability; after 5 hr): > 75%
